Earlier results in US20050053658A1, “Extended release systems for macrolide antibiotics” (priority 2003, published 2005).

- water solubility: poorly water soluble
Structure (SMILES): CC[C@H]1OC(=O)[C@H](C)[C@@H](O[C@H]2C[C@@](C)(OC)[C@@H](O)[C@H](C)O2)[C@H](C)[C@@H](O[C@@H]2O[C@H](C)C[C@H](N(C)C)[C@H]2O)[C@](C)(OC)C[C@@H](C)C(=O)[C@H](C)[C@@H](O)[C@]1(C)O [Clarithromycin]
